We go through 22 compounds from patent publication US9809604B2, “DGAT1 inhibitor and preparation method and use thereof” (Qingdao Huanghai Pharmaceutical Co., Ltd., priority 2013, dated 2017).

Where two headings read alike, the source gives them in different places.

For the assay, the target named is T1, DGAT1 (Homo sapiens, UniProt O75907).
T1 sequence (O75907 1-488): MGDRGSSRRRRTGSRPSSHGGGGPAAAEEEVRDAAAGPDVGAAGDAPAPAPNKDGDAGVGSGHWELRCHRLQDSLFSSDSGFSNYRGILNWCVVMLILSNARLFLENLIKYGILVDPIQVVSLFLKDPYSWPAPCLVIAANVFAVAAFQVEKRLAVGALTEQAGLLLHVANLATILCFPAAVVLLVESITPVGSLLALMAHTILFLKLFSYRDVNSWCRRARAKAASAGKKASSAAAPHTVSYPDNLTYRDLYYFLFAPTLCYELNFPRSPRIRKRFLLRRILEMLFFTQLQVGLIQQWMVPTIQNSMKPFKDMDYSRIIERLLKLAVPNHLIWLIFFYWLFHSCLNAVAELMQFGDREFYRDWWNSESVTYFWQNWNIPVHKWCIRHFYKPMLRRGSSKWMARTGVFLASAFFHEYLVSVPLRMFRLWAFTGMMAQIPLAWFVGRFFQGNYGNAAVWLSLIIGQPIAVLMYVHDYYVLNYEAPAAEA
Put plainly: Human DGAT1 IC50 enzyme assay (Flashplate, 14C-labeled acyl-CoA). Type of assay: biochemical. Set-up: made in house. On the procedure: The ability of compounds to inhibit DGAT enzyme activity is determined by calculating IC50 values of test compounds. Ki values of DGAT1 are calculated as follows: Cheng-Prusoff equation: Ki=IC50/(1+[S]/Km)
(1) Human DGAT1 IC50 (nM) Experiment
Human DGAT1 activity was determined as follows:
Expressing human DGAT1 enzyme, used diacylglycerol and 14C-labeled acyl-CoA as the substrate, choose PE Company Flashplate testing board to build DGAT1 enzyme reaction system. 14C-labeled acyl-CoA binds to diacylglycerol by covalent bonding after enzymology reaction, and generates the product of 14C-labeled triglyceride. 14C-labeled acyl-CoA substrate is dissolved in reaction solution and 14C-labeled triglyceride product combine with phospholipids of Flashplate plate bottom layer, thus effectively separate labeled substrates and products. The radioactive of 14C-labeled triglyceride which is combined with phospholipid layer is counted, and the potencies of DGAT-1 inhibition for the compounds are determined by calculating the IC50 values.

The mark [1] stands for this setting: average of first and second, read-out: hDGAT1 IC50(nM) Average.
[2] abbreviates: first determination, read-out: hDGAT1 IC50(nM) First.
Setting [3] is: second determination, read-out: hDGAT1 IC50(nM) Second.

Broadly, the IC50 is the midpoint of a concentration-inhibition curve. Turning to `Nc1ncnc2c1C(=O)N(c1ccc3c(c1)CCC(OCC(F)(F)F)C3)CCO2` (single isomer, unassigned; peak1) [Compound 105 (peak1), 4-amino-6-(6-(2,2,2-trifluoroethoxy)-5,6,7,8-tetrahydonaphthalen-2-yl)-7,8-dihydropyrimido[5,4-f][1,4]oxazepin-5-(6H)-one], the half-inhibitory concentration (IC50) reads like this: under setting [1], 73.3 nM; under setting [2], 103 nM; under setting [3], 43.3 nM.

In the case of `Cc1nn(CC(=O)O)cc1-c1ccc(N2CCOc3ncnc(N)c3C2=O)cc1Cl` [Compound 36, 2-(4-(4-(4-amino-5-oxo-7,8-dihydropyrimido[5,4-f][1,4]oxazepin-6(5H)-yl)-2-chlorophenyl)-3-methyl-1H-pyrazol-1-yl)acetic acid], the 50% inhibitory concentration (IC50) by setting is: under setting [1], 29.3 nM; under setting [2], 37.7 nM; under setting [3], 21 nM.

For `Nc1ncnc2c1C(=O)N(c1ccc(-c3cn(CCC(=O)O)nc3C(F)(F)F)cc1)CCO2` [Compound 62], the half-inhibitory concentration (IC50) came to 68.2 nM under setting [1], 57.9 nM under setting [2] and 78.6 nM under setting [3].

With `Cc1cc(N2CCOc3ncnc(N)c3C2=O)cc(C)c1-c1cnn(CCC(=O)O)c1` [Compound 70, 3-(4-(4-(4-amino-5-oxo-7,8-dihydropyrimido [5,4-f][1,4]oxazepin-6(5H)-yl)-2,6-dimethylphenyl)-1H-pyrazol-1-yl)propanoic acid], the IC50 by setting is: under setting [1], 20.4 nM; under setting [2], 27.6 nM; under setting [3], 13.2 nM.

Take `CC(C)C(C(=O)O)n1cc(-c2ccc(N3CCOc4ncnc(N)c4C3=O)cc2Cl)cn1` (stereo not drawn) [Compound 65, 2-(4-(4-(4-amino-5-oxo-7,8-dihydropyrimido [5,4-f][1,4]oxazepin-6(5H)-yl)-2-chlorophenyl)-1H-pyrazol-1-yl)-3-methylbutanoic acid]: the 50% inhibitory concentration (IC50) is, setting by setting: under setting [1], 41.5 nM; under setting [2], 39 nM; under setting [3], 44.1 nM.

For `CCc1cc(N2CCOc3ncnc(N)c3C2=O)cc(C)c1N1CCN(CC(=O)O)C1=O` [Compound 4, 2-(3-(4-(4-amino-5-oxo-7,8-dihydropyrimido[5,4-f][1,4]oxazepin-6(5H)-yl)-2-ethyl-6-methylphenyl)-2-oxoimidazolidin-1-yl)acetic acid], the concentration for half-maximal inhibition (IC50) is 39.5 nM under setting [1], 46.2 nM under setting [2] and 32.9 nM under setting [3].

For the compound `COC(C)(C)Cn1cc(-c2ccc(N3CCOc4ncnc(N)c4C3=O)cc2Cl)cn1` [Compound 94, 4-amino-6-(3-chloro-4-(1-(2-methoxy-2-methylpropyl)-1H-pyrazol-4-yl)phenyl)-7,8-dihydropyrimido[5,4-f][1,4]oxazepin-5(6H)-one], the half-maximal inhibitory concentration (IC50) under setting [1] came out at 59.1 nM, the IC50 under setting [2] came to 63.1 nM and the IC50 under setting [3] was 55.1 nM.

`Nc1ncnc2c1C(=O)N(c1ccc(N3CCN(CC(=O)O)C3=O)c(F)c1)CCO2` [Compound 2, 2-(3-(4-(4-amino-5-oxo-7,8-dihydropyrimido[5,4-f][1,4]oxazepin-6(5H)-yl)-2-fluorophenyl)-2-oximidazolidin-1-yl)acetate acid]: the IC50 is, setting by setting: under setting [1], 52.9 nM; under setting [2], 64.1 nM; under setting [3], 41.6 nM.

Regarding `Nc1ncnc2c1C(=O)N(c1ccc(N3CCN(CC(=O)O)C3=O)c(C(F)(F)F)c1)CCO2` [Compound 25, 2-(3-(4-(4-amino-5-oxo-7,8-dihydropyrimido [5,4-f][1,4]oxazepin-6(5H)-yl)-2-(trifluoromethyl)phenyl)-2-oxoimidazolidin-1-yl)acetic acid], the IC50 runs as follows: under setting [1], 58.9 nM; under setting [2], 57.2 nM; under setting [3], 60.7 nM.

As to `CC(C)(Cn1cc(-c2ccc(N3CCOc4ncnc(N)c4C3=O)cc2Cl)cn1)C(=O)N1CCCC1` [Compound 85], the half-inhibitory concentration (IC50) came to 61.7 nM under setting [1], 59.6 nM under setting [2] and 63.7 nM under setting [3].

With `Cc1nn(CCC(=O)O)cc1-c1ccc(N2CCOc3ncnc(N)c3C2=O)cc1Cl` [Compound 78, 3-(4-(4-(4-amino-5-oxo-7,8-dihydropyrimido [5,4-f][1,4]oxazepin-6(5H)-yl)-2-chlorophenyl)-3-methyl-1H-pyrazol-1-yl)propanoic acid], the IC50 by setting is: under setting [1], 54.8 nM; under setting [2], 69.2 nM; under setting [3], 40.3 nM.

As for `Nc1ncnc2c1C(=O)N(c1ccc(N3CCN(CC(=O)O)C3=O)c(Cl)c1)CCO2` [Compound 1, 2-(3-(4-(4-amino-5-oxo-7,8-dihydropyrimido[5,4-f][1,4]oxazepin-6(5H)-yl)-2-chlorophenyl)-2-oxoimidazolidin-1-yl)acetic acid], the IC50 by setting is: under setting [1], 48.1 nM; under setting [2], 53.3 nM; under setting [3], 43 nM.

In the case of `Cc1cc(N2CCOc3ncnc(N)c3C2=O)ccc1-c1cnn(C(C(=O)O)C(C)C)c1` (stereo not drawn) [Compound 59, 2-(4-(4-(4-amino-5-oxo-7,8-dihydropyrimido [5,4-f][1,4]oxazepin-6(5H)-yl)-2-methylphenyl)-1H-pyrazol-1-yl)-3-methylbutanoic acid], the IC50 is 80.3 nM under setting [1], 54.9 nM under setting [2] and 106 nM under setting [3].

As to `CN(C)C(=O)C(C)(C)Cn1cc(-c2ccc(N3CCOc4ncnc(N)c4C3=O)cc2Cl)cn1` [Compound 89, 3-(4-(4-(4-amino-5-oxo-7,8-dihydropyrimido [5,4-f][1,4]oxazepin-6(5H)-yl)-2-chlorophenyl)-1H-pyrazol-1-yl)-N,N,2,2-tetramethylpropanamide], the concentration for half-maximal inhibition (IC50) is, setting by setting: under setting [1], 80.7 nM; under setting [2], 71.2 nM; under setting [3], 90.1 nM.

Regarding `Cc1cc(N2CCOc3ncnc(N)c3C2=O)cc(C)c1-c1cn(CC2(C)COC2)nc1C` [Compound 47, 4-amino-6-(3,5-dimethyl-4-(3-methyl-1-((3-methyloxetan-3-yl)methyl)-1H-pyrazol-4-yl)phenyl)-7,8-dihydropyrimido[5,4-f][1,4]oxazepin-5(6H)-one], the IC50 amounted to 87 nM under setting [1], 65.4 nM under setting [2] and 109 nM under setting [3].

On to `CCn1cc(-c2ccc(N3CCOc4ncnc(N)c4C3=O)cc2Cl)cn1` [Compound 79, 4-amino-6-(3-chloro-4-(1-ethyl-1H-pyrazol-4-yl)phenyl)-7,8-dihydropyrimido [5,4-f][1,4]oxazepin-5(6H)-one], for which the half-maximal inhibitory concentration (IC50) is 52.1 nM under setting [1], 46.4 nM under setting [2] and 57.8 nM under setting [3].

Regarding `CC(C)Cn1cc(-c2ccc(N3C(=O)c4c(N)ncnc4OC[C@H]3C)cc2Cl)cn1` [Compound 96, (R)-4-amino-6-(3-chloro-4-(1-isobutyl-1H-pyrazol-4-yl)phenyl)-7-methyl-7,8-dihydropyrimido[5,4-f][1,4] oxazepin-5-(6H)-one], the IC50 runs as follows: under setting [1], 70.5 nM; under setting [2], 69.4 nM; under setting [3], 71.7 nM.

Regarding `CC(C)(O)Cn1cc(-c2ccc(N3CCOc4ncnc(N)c4C3=O)cc2Cl)cn1` [Compound 42, 4-amino-6-(3-chloro-4-(1-(2-hydroxy-2-methylpropyl)-1H-pyrazol-4-yl)phenyl)-7,8-dihydropyrimido[5,4-f][1,4]oxazepin-5(6H)-one], the IC50 runs as follows: under setting [1], 59.6 nM; under setting [2], 75 nM; under setting [3], 44.2 nM.

On to `Cc1cc(N2CCOc3ncnc(N)c3C2=O)cc(Cl)c1N1CCN(CC(=O)O)C1=O` [Compound 27], for which the 50% inhibitory concentration (IC50) came to 62.4 nM under setting [1], 69 nM under setting [2] and 55.7 nM under setting [3].

For `Cc1cc(N2CCOc3ncnc(N)c3C2=O)ccc1-c1cnn(CC(=O)O)c1` [Compound 57, 2-(4-(4-(4-amino-5-oxo-7,8-dihydropyrimido [5,4-f][1,4]oxazepin-6(5H)-yl)-2-methylphenyl)-1H-pyrazol-1-yl)acetic acid], the IC50 is, setting by setting: under setting [1], 91.9 nM; under setting [2], 81.3 nM; under setting [3], 102 nM.

For the compound `Cc1cc(N2CCOc3ncnc(N)c3C2=O)cc(F)c1N1CCN(CC(=O)O)C1=O` [Compound 26, 2-(3-(4-(4-amino-5-oxo-7,8-dihydropyrimido [5,4-f][1,4]oxazepin-6(5H)-yl)-2-fluoro-6-methylphenyl)-2-oxoimidazolidin-1-yl) acetic acid], the concentration for half-maximal inhibition (IC50) under setting [1] was 50.6 nM, the IC50 under setting [2] is 41.3 nM and the concentration for half-maximal inhibition (IC50) under setting [3] was found to be 60 nM.

For `CC(C)CN1CCN(c2ccc(N3CCOc4ncnc(N)c4C3=O)cc2Cl)C1=O` [Compound 29, 4-amino-6-(3-chloro-4-(3-isobutyl-2-oxoimidazolidin-1-yl)phenyl)-7,8-dihydropyrimido [5,4-f][1,4]oxazepin-5(6H)-one], the half-maximal inhibitory concentration (IC50) reads like this: under setting [1], 35.2 nM; under setting [2], 37.4 nM; under setting [3], 32.9 nM.
